Tested on: MV-4-11 cells
Assay: Gene expression microarray analysis (Affymetrix PrimeView) and GSEA
Assay type: cell-based, human
Settings: MV-4-11, 48 hours, 1 μM each

For `Nc1ncn([C@@H]2O[C@H](CO)[C@@H](O)[C@H]2O)c(=O)n1` [azacitidine], the “genes down-regulated greater than 2-fold relative to vehicle control” value was 12 genes.

From article PMC5218480 (PLoS ONE, 2017)
